This note sets out measurements from ChEMBL document CHEMBL5726221, “4,6-substituted-pyrazolo[1,5-a]pyrazines as janus kinase inhibitors” (2019).

By IC50 is commonly meant the point on the concentration scale where inhibition reaches its midpoint.

Assay [1] has as its target T1, Tyrosine-protein kinase JAK3 (Homo sapiens, UniProt P52333).
T1 sequence (P52333 whole entry): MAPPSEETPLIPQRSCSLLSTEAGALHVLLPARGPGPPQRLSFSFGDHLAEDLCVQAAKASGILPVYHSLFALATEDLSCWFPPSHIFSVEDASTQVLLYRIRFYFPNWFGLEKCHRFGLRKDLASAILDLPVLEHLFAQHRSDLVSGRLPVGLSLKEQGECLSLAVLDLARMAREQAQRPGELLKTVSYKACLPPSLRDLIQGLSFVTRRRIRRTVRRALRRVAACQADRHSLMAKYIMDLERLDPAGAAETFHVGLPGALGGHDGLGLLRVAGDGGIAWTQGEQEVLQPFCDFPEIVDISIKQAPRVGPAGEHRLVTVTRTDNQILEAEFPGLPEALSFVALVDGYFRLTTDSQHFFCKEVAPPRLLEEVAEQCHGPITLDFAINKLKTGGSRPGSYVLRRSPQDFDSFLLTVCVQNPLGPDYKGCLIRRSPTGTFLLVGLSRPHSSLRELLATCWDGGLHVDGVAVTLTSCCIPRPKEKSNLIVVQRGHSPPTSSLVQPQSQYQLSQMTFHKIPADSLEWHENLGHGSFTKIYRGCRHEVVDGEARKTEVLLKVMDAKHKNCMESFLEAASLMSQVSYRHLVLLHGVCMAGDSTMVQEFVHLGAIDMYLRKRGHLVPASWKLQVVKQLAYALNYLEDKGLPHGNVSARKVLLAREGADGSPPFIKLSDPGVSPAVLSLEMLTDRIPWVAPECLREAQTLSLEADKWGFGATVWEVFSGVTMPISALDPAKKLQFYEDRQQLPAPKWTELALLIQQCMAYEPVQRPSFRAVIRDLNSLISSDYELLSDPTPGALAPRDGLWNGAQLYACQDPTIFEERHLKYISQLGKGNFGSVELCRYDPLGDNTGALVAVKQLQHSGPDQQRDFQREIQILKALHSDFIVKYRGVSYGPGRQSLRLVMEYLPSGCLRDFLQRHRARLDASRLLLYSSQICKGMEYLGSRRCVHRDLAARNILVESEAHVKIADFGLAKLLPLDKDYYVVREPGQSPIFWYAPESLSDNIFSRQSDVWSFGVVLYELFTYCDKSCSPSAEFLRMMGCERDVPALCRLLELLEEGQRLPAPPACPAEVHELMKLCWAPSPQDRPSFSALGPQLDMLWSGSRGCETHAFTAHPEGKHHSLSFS
Kind of assay: JAK3 Inhibition Assay: Compounds of Formula I were screened for their ability to inhibit JAK3 using the general enzyme inhibition assay method, in which the assay mixture contained 1 mM ATP, 10 μM Omnia® Y7 peptide (Catalog # IVGN KNZ3071C, Invitrogen Corporation, Carlsbad, Calif.) and 2 nM JAK3 in a total volume of 25 μL. JAK3 was purchased from Invitrogen Corporation, Carlsbad, Calif. (catalog # IVGN PV4080).

In assay [2] the target is Non-receptor tyrosine-protein kinase TYK2 (Homo sapiens, UniProt P29597). Briefly: Tyk2 Inhibition Assay: Compounds of Formula I were screened for their ability to inhibit Tyk2 using the general enzyme inhibition assay method, in which the assay mixture contained 1 mM ATP, 8 μM Omnia Y12 peptide (Catalog # IVGN KPZ3121C; Invitrogen Corporation, Carlsbad, Calif.) and 1 nM Tyk2 in a total volume of 25 μL. Human Tyk2 kinase domain, comprising amino acids 886 to 1187 with 10 additional histidine residues (histidine tag) on the carboxy terminus, was expressed and purified from bacculovirus in-house at Array BioPharma Inc. (Boulder, Colo.). The histidine tag was cleaved after purification using standard conditions.
Chain of Non-receptor tyrosine-protein kinase TYK2 (P29597 whole entry, the tested form may be a part): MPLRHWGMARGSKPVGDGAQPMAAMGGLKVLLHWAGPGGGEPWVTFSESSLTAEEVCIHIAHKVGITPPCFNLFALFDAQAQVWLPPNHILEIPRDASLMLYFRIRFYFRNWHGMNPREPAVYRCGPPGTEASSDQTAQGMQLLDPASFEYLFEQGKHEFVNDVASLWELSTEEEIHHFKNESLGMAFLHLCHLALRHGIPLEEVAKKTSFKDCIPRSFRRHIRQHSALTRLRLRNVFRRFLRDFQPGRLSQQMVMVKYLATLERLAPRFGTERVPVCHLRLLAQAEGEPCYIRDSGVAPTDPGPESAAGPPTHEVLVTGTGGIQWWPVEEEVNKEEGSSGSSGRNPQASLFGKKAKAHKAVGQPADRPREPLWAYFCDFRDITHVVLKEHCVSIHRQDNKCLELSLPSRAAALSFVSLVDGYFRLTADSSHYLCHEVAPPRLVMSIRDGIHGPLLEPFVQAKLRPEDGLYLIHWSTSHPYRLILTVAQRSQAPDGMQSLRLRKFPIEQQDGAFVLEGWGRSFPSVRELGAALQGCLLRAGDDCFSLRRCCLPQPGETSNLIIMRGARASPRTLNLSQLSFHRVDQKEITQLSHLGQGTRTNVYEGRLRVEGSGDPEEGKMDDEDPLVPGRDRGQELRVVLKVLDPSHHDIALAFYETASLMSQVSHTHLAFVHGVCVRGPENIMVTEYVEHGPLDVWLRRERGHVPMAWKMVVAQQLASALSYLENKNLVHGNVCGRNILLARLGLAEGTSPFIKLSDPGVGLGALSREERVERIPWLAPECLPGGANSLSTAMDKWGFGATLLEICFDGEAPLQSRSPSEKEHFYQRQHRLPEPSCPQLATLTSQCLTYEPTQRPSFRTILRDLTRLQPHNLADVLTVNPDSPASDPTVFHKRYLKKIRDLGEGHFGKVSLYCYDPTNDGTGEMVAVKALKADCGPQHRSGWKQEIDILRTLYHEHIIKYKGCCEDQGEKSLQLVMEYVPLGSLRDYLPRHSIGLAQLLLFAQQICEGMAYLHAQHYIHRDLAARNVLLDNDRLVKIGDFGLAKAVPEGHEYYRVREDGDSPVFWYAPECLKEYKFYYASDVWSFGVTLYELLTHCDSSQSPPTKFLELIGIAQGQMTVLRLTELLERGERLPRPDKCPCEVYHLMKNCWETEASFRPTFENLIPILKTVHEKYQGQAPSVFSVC

Turning to `CCC(CC)n1cc(-c2nc(-c3cnn([C@H]4C[C@@](O)(CO)C4)c3)cn3nccc23)cn1`, in assay [1], the 50% inhibitory concentration (IC50) entry was “in the range around 5.5 µM”.

Regarding `CCC(CC)n1cc(-c2nc(-c3cnn([C@H]4C[C@@H](O)[C@@H](O)C4)c3)cn3nccc23)cn1`, the IC50 result is “in the range around 5.5 µM” in assay [1] and “in the range around 0.055 µM” in assay [2]. On to `CCC(CC)n1cc(-c2nc(-c3cnn(CC4CC(CO)C4)c3)cn3nccc23)cn1` (centres undefined), for which the half-inhibitory concentration (IC50) result in assay [1] is “in the range around 5.5 µM”.
